What was measured:
rabbit skin [1] = conditions: in vivo
Experimental: (§1) Groups of four albino rabbits were given dosages of 1.00, 2.15, 4.64 and 10.0 ml per kg, respectively.

rabbit eye = assay: Eye Irritation--Rabbit; format: in vivo
Experimental: […] was instilled into the conjunctival sac of the rabbit eye. Over a period of several years two different lots of DMI (designated here merely as A or B) were tested at different times and at various concentrations. […] The following classification of degree of irritancy, according to the terminology of […], was made for the various tests on the unwashed eye: The classification of DMI according to specifications provided in the Federal Hazardous Substances Act for the specified test and concentration are shown below: […]

rabbit skin [2] = conditions: in vivo; remark: listed apart in the source
[3] = Experimental: The samples were prepared using USP grade aspirin, which was dried at 110° before use. […] Spectrum b was taken after the sample (containing 10% water) was stored at 70° C. for 96 hours.
human skin = assay: Human Patch Tests; format: in vivo
From the text: Undiluted dimethyl ether of isosorbide has been tested under a closed patch of human subjects in accordance with the […] patch-test procedure originally designed by the dermatologist, B. Schwartz, M.D., and more recently adapted by R. B. Osbourn, M.D.

rabbit skin [4] = assay: Acute Percutaneous Toxicity--Rabbit
Experimental: as §1

[5] = Preliminary toxicity of dimethyl isosorbide
From the text: We use dimethyl isosorbide (DMI) as the vehicle for the liquid formulation of aspirin. […] When used internally, it is predicted that DMI will be metabolized to form isosorbide, a remedy for diuretic purposes. From the chemical structural point of view, it is seen that DMI is practically inert to aspirin degradation.

[6] = tested on: external auditory canal of rabbit ear; assay: Instillation into Rabbit Ear; format: in vivo; conditions: four right rabbit ears, up to 5 days
Experimental: DMI was introduced onto the external auditory canal of each of four right rabbit ears. Likewise, four other right rabbit ears were instilled with 0.35 ml of 40% DMI in water.

rats = assay: Acute Oral Toxicity--Rat; format: in vivo
Experimental: An approximate oral LD50 of dimethyl isorbide was determined.

CO[C@H]1CO[C@H]2[C@@H]1OC[C@H]2OC [Dimethyl isosorbide, dimethyl isosorbide]
erythema (rabbit skin [1]): transitory mild to moderate erythema
gross pathological findings (rabbit skin [1]): No gross pathological findings
Class. as Irritating Code of Federal Regulations (rabbit eye; 40%, lot A, test 1): Negative
No. of Eyes Positive / No. of Eyes Tested CFR (rabbit eye; 40%, lot A, test 1): 0/6
Average Score (out of potential 100) (rabbit eye; 40%, lot A, test 1, 3 eyes, washed 2 sec., 1 hour): 0.0
Average Score (out of potential 100) (rabbit eye; 40%, lot A, test 1, 3 eyes, washed 2 sec., 24 hours): 0.0
Average Score (out of potential 100) (rabbit eye; 40%, lot A, test 1, 3 eyes, washed 2 sec., 48 hours): 0.0
Average Score (out of potential 100) (rabbit eye; 40%, lot A, test 1, 3 eyes, washed 2 sec., 72 hours): 0.0
Average Score (out of potential 100) (rabbit eye; 40%, lot A, test 1, 3 eyes, washed 2 sec., 96 hours): 0.0
Average Score (out of potential 100) (rabbit eye; 40%, lot A, test 1, 3 eyes, washed 2 sec., 7 days): 0.0
Average Score (out of potential 100) (rabbit eye; 40%, lot A, test 1, 6 eyes, unwashed, 1 hour): 0.0
Average Score (out of potential 100) (rabbit eye; 40%, lot A, test 1, 6 eyes, unwashed, 24 hours): 0.0
Average Score (out of potential 100) (rabbit eye; 40%, lot A, test 1, 6 eyes, unwashed, 48 hours): 0.0
Average Score (out of potential 100) (rabbit eye; 40%, lot A, test 1, 6 eyes, unwashed, 72 hours): 0.0
Average Score (out of potential 100) (rabbit eye; 40%, lot A, test 1, 6 eyes, unwashed, 96 hours): 0.0
Average Score (out of potential 100) (rabbit eye; 40%, lot A, test 1, 6 eyes, unwashed, 7 days): 0.0
Classification (Kay and Calandra) (rabbit eye; 40%, lot A, test 1, unwashed eye): Nonirritating
Class. as Irritating Code of Federal Regulations (rabbit eye; 60%, lot A, test 1): Negative
No. of Eyes Positive / No. of Eyes Tested CFR (rabbit eye; 60%, lot A, test 1): 0/6
Average Score (out of potential 100) (rabbit eye; 60%, lot A, test 1, 3 eyes, washed 2 sec., 1 hour): 0.0
Average Score (out of potential 100) (rabbit eye; 60%, lot A, test 1, 3 eyes, washed 2 sec., 24 hours): 0.0
Average Score (out of potential 100) (rabbit eye; 60%, lot A, test 1, 3 eyes, washed 2 sec., 48 hours): 0.0
Average Score (out of potential 100) (rabbit eye; 60%, lot A, test 1, 3 eyes, washed 2 sec., 72 hours): 0.0
Average Score (out of potential 100) (rabbit eye; 60%, lot A, test 1, 3 eyes, washed 2 sec., 96 hours): 0.0
Average Score (out of potential 100) (rabbit eye; 60%, lot A, test 1, 3 eyes, washed 2 sec., 7 days): 0.0
Average Score (out of potential 100) (rabbit eye; 60%, lot A, test 1, 6 eyes, unwashed, 1 hour): 0.0
Average Score (out of potential 100) (rabbit eye; 60%, lot A, test 1, 6 eyes, unwashed, 24 hours): 0.0
Average Score (out of potential 100) (rabbit eye; 60%, lot A, test 1, 6 eyes, unwashed, 48 hours): 0.0
Average Score (out of potential 100) (rabbit eye; 60%, lot A, test 1, 6 eyes, unwashed, 72 hours): 0.0
Average Score (out of potential 100) (rabbit eye; 60%, lot A, test 1, 6 eyes, unwashed, 96 hours): 0.0
Average Score (out of potential 100) (rabbit eye; 60%, lot A, test 1, 6 eyes, unwashed, 7 days): 0.0
Classification (Kay and Calandra) (rabbit eye; 60%, lot A, test 1, unwashed eye): Nonirritating
Class. as Irritating Code of Federal Regulations (rabbit eye; 80%, lot A, test 1): Negative
No. of Eyes Positive / No. of Eyes Tested CFR (rabbit eye; 80%, lot A, test 1): 0/6
Average Score (out of potential 100) (rabbit eye; 80%, lot A, test 1, 3 eyes, washed 2 sec., 1 hour): 0.0
Average Score (out of potential 100) (rabbit eye; 80%, lot A, test 1, 3 eyes, washed 2 sec., 24 hours): 0.0
Average Score (out of potential 100) (rabbit eye; 80%, lot A, test 1, 3 eyes, washed 2 sec., 48 hours): 0.0
Average Score (out of potential 100) (rabbit eye; 80%, lot A, test 1, 3 eyes, washed 2 sec., 72 hours): 0.0
Average Score (out of potential 100) (rabbit eye; 80%, lot A, test 1, 3 eyes, washed 2 sec., 96 hours): 0.0
Average Score (out of potential 100) (rabbit eye; 80%, lot A, test 1, 3 eyes, washed 2 sec., 7 days): 0.0
Average Score (out of potential 100) (rabbit eye; 80%, lot A, test 1, 6 eyes, unwashed, 1 hour): 0.0
Average Score (out of potential 100) (rabbit eye; 80%, lot A, test 1, 6 eyes, unwashed, 24 hours): 0.0
Average Score (out of potential 100) (rabbit eye; 80%, lot A, test 1, 6 eyes, unwashed, 48 hours): 0.0
Average Score (out of potential 100) (rabbit eye; 80%, lot A, test 1, 6 eyes, unwashed, 72 hours): 0.0
Average Score (out of potential 100) (rabbit eye; 80%, lot A, test 1, 6 eyes, unwashed, 96 hours): 0.0
Average Score (out of potential 100) (rabbit eye; 80%, lot A, test 1, 6 eyes, unwashed, 7 days): 0.0
Classification (Kay and Calandra) (rabbit eye; 80%, lot A, test 1, unwashed eye): Nonirritating
Class. as Irritating Code of Federal Regulations (rabbit eye; 100%, lot A, test 1): Positive
No. of Eyes Positive / No. of Eyes Tested CFR (rabbit eye; 100%, lot A, test 1): 4/6
Average Score (out of potential 100) (rabbit eye; 100%, lot A, test 1, 3 eyes, washed 2 sec., 1 hour): 0.0
Average Score (out of potential 100) (rabbit eye; 100%, lot A, test 1, 3 eyes, washed 2 sec., 24 hours): 0.0
Average Score (out of potential 100) (rabbit eye; 100%, lot A, test 1, 3 eyes, washed 2 sec., 48 hours): 0.0
Average Score (out of potential 100) (rabbit eye; 100%, lot A, test 1, 3 eyes, washed 2 sec., 72 hours): 0.0
Average Score (out of potential 100) (rabbit eye; 100%, lot A, test 1, 3 eyes, washed 2 sec., 96 hours): 0.0
Average Score (out of potential 100) (rabbit eye; 100%, lot A, test 1, 3 eyes, washed 2 sec., 7 days): 0.0
Average Score (out of potential 100) (rabbit eye; 100%, lot A, test 1, 6 eyes, unwashed, 1 hour): 0.0
Average Score (out of potential 100) (rabbit eye; 100%, lot A, test 1, 6 eyes, unwashed, 24 hours): 15.0
Average Score (out of potential 100) (rabbit eye; 100%, lot A, test 1, 6 eyes, unwashed, 48 hours): 10.3
Average Score (out of potential 100) (rabbit eye; 100%, lot A, test 1, 6 eyes, unwashed, 72 hours): 10.0
Average Score (out of potential 100) (rabbit eye; 100%, lot A, test 1, 6 eyes, unwashed, 96 hours): 10.0
Average Score (out of potential 100) (rabbit eye; 100%, lot A, test 1, 6 eyes, unwashed, 7 days): 10.0
score of one eye (zero) (rabbit eye; 100%, lot A, test 1, unwashed): zero
Classification (Kay and Calandra) (rabbit eye; 100%, lot A, test 1, unwashed eye): Cannot be classified
maximum score of other eyes (rabbit eye; 100%, lot A, test 1, unwashed, no other eye greater at any reading): ≤ 14
score of one eye (rabbit eye; 100%, lot A, test 1, unwashed, consistent score): 60-64
Class. as Irritating Code of Federal Regulations (rabbit eye; 100%, lot A, test 2): Negative
No. of Eyes Positive / No. of Eyes Tested CFR (rabbit eye; 100%, lot A, test 2): 0/6
Average Score (out of potential 100) (rabbit eye; 100%, lot A, test 2, 3 eyes, washed 2 sec., 1 hour): 0.0
Average Score (out of potential 100) (rabbit eye; 100%, lot A, test 2, 3 eyes, washed 2 sec., 24 hours): 0.0
Average Score (out of potential 100) (rabbit eye; 100%, lot A, test 2, 3 eyes, washed 2 sec., 48 hours): 0.0
Average Score (out of potential 100) (rabbit eye; 100%, lot A, test 2, 3 eyes, washed 2 sec., 72 hours): 0.0
Average Score (out of potential 100) (rabbit eye; 100%, lot A, test 2, 3 eyes, washed 2 sec., 96 hours): 0.0
Average Score (out of potential 100) (rabbit eye; 100%, lot A, test 2, 3 eyes, washed 2 sec., 7 days): 0.0
Average Score (out of potential 100) (rabbit eye; 100%, lot A, test 2, 6 eyes, unwashed, 1 hour): 0.0
Average Score (out of potential 100) (rabbit eye; 100%, lot A, test 2, 6 eyes, unwashed, 24 hours): 0.0
Average Score (out of potential 100) (rabbit eye; 100%, lot A, test 2, 6 eyes, unwashed, 48 hours): 0.0
Average Score (out of potential 100) (rabbit eye; 100%, lot A, test 2, 6 eyes, unwashed, 72 hours): 0.0
Average Score (out of potential 100) (rabbit eye; 100%, lot A, test 2, 6 eyes, unwashed, 96 hours): 0.0
Average Score (out of potential 100) (rabbit eye; 100%, lot A, test 2, 6 eyes, unwashed, 7 days): 0.0
Classification (Kay and Calandra) (rabbit eye; 100%, lot A, test 2, unwashed eye): Nonirritating
Class. as Irritating Code of Federal Regulations (rabbit eye; 100%, lot B, test 1): Negative
No. of Eyes Positive / No. of Eyes Tested CFR (rabbit eye; 100%, lot B, test 1): 0/6
Average Score (out of potential 100) (rabbit eye; 100%, lot B, test 1, 3 eyes, washed 2 sec., 1 hour): 2.7
Average Score (out of potential 100) (rabbit eye; 100%, lot B, test 1, 3 eyes, washed 2 sec., 24 hours): 18.0
Average Score (out of potential 100) (rabbit eye; 100%, lot B, test 1, 3 eyes, washed 2 sec., 48 hours): 17.3
Average Score (out of potential 100) (rabbit eye; 100%, lot B, test 1, 3 eyes, washed 2 sec., 72 hours): 9.4
Average Score (out of potential 100) (rabbit eye; 100%, lot B, test 1, 3 eyes, washed 2 sec., 96 hours): 8.7
Average Score (out of potential 100) (rabbit eye; 100%, lot B, test 1, 3 eyes, washed 2 sec., 7 days): 0.0
Average Score (out of potential 100) (rabbit eye; 100%, lot B, test 1, 6 eyes, unwashed, 1 hour): 3.7
Average Score (out of potential 100) (rabbit eye; 100%, lot B, test 1, 6 eyes, unwashed, 24 hours): 11.3
Average Score (out of potential 100) (rabbit eye; 100%, lot B, test 1, 6 eyes, unwashed, 48 hours): 5.6
Average Score (out of potential 100) (rabbit eye; 100%, lot B, test 1, 6 eyes, unwashed, 72 hours): 5.0
Average Score (out of potential 100) (rabbit eye; 100%, lot B, test 1, 6 eyes, unwashed, 96 hours): 5.0
Average Score (out of potential 100) (rabbit eye; 100%, lot B, test 1, 6 eyes, unwashed, 7 days): 4.6
score of one other eye (zero) (rabbit eye; 100%, lot B, test 1, unwashed): zero
Classification (Kay and Calandra) (rabbit eye; 100%, lot B, test 1, unwashed eye): Mildly irritating
score of one eye (rabbit eye; 100%, lot B, test 1, unwashed, consistently): 28-30
variability in response of individual rabbit eyes (rabbit eye; undiluted): considerable variability in the response of individual rabbit eyes
individual score of single positive reading (rabbit skin [2]): 1.0
score (edema or erythema) (rabbit skin [2]): No score (edema or erythema) was obtained on any of the rabbits
chemical interaction with aspirin / induction of aspirin degradation [3]: does not interact chemically with aspirin, not does it induce the degradation of aspirin
No. of Reactors/No. of Subj. Tested, 1st Appl. (human skin; 100%, closed patch): 0/200
No. of Reactors/No. of Subj. Tested, Both Appl. (human skin; 100%, closed patch): 2/200
grade of reaction of the two reactors (human skin; second application only, two subjects): questionable (1) reaction
retest of the two reactors (human skin; semiclosed patch, another site, 48 hours later): both were negative 48 hours
primary irritant / skin sensitizer conclusion (human skin; undiluted, human skin): neither a primary irritant to the human skin nor a skin sensitizer
survival (rabbit skin [4]; undiluted, 1.00, 2.15, 4.64 and 10.0 ml per kg): All rabbits survived
acute percutaneous toxicity (rabbit skin [4]; undiluted, rabbit skin under rubber dental dam, 24 hours): greater than 10 ml per kg of body weight
toxicity (preliminary studies) [5]: practically nontoxic
irritation to the integument of the external auditory canal ([6]; 0.35 ml of 40% DMI in water): No irritation to the integument of the external auditory canal was observed
irritation to the integument of the external auditory canal ([6]; DMI): No irritation to the integument of the external auditory canal was observed
Signs of intoxication (rats): depression, lacrimation, labored respiration, tachcardia and ataxia
classification for acute oral toxicities (Hodge and Sterner) (rats): practically nontoxic
examination of the tissues of the animals that died (rats; 6.81 and 10.0 ml/kg): hyperemic lungs, slight irritation of the small intestine and congestion of kidneys and adrenals
mortality (rats; 6.81 and 10.0 ml/kg): all of the 10 rats given the two higher dosages died

Reference: US4228162A (priority 1979, dated 1980)
